Measured values from ChEMBL document CHEMBL5727929, “CXCR4 inhibitors and uses thereof” (2020).

Assay: Binding Inhibition Assay: Jurkat cells expressing CXCR4 were washed once with assay buffer (Hanks' balanced salt solution with 20 mM HEPES buffer and 0.2% bovine serum albumin, pH 7.4) and then incubated for 15 min at room temperature with the test compounds diluted in assay buffer at dose-dependent concentrations. Subsequently, CXCL12-AF647 (25 ng/mL) was added to the compound-incubated cells. The cells were incubated for 30 min at room temperature. Thereafter, the cells were washed twice in assay buffer, fixed in 1% paraformaldehyde in PBS, and analyzed on the FL4 channel of a FACSCalibur flow cytometer equipped with a 635-nm red diode lase.

With `CC[C@H](O)c1c([C@H]2CCC[C@@H](c3ncccc3C)N2C)nc2cccc(N3CCN(C)CC3)n12` the IC50 was 0.01 to 100 nM.
